{
  "source": "patent EP0908457B1",
  "about": "“3-(1,2-benzisothiazol- and isoxazol-5-Y1)-2,4(1H,3H)-pyrimidinedione or thione and 3-(1,2-benzisothiazol- and isoxazol-5-y1)-4(3H)-pyrimidinone or thione herbicidal agents” (BASF AKTIENGESELLSCHAFT, priority 1997, dated 1999)",
  "key": {"[1]": {"test_system": "Oryza sativa, (L.) Tebonnet", "assay": "Rice tolerance to post-transplant applications under flooded paddy conditions (Example 187), ORYSAT (Rice, Tebonnet)", "details": "rated three to four weeks after treatment"}, "[2]": {"test_system": "Echinochloa oryzoides (Ard.) Fritsch.", "assay": "Preemergence weed control under flooded paddy conditions, ECHORC (Watergrass (Calif.)); further: meaning of each grade not given here", "type": "in vivo", "details": "preemergence, flooded paddy, rated three to four weeks after treatment"}, "[3]": {"test_system": "Oryza sativa, (L.) Tebonnet", "assay": "Rice tolerance to post-transplant applications under flooded paddy conditions (Example 188), ORYSAT (Rice, Tebonnet)", "details": "rated three to four weeks after treatment"}, "[4]": {"test_system": "Echinochloa oryzoides (Ard.) Fritsch.", "assay": "Postemergence weed control under flooded paddy conditions, ECHORC (Watergrass (Calif.))", "type": "in vivo", "details": "rated three to four weeks after treatment"}, "Cyperus iria [5]": {"test_system": "Cyperus iria", "assay": "Postemergence weed control under flooded paddy conditions, CYPIR (Rice Flatsedge)", "type": "in vivo", "details": "rated three to four weeks after treatment"}, "[6]": {"test_system": "Monochoria vaginalis, Presl.", "assay": "Preemergence weed control under flooded paddy conditions, MOOVA (Monochoria); further: meaning of each grade not given here", "type": "in vivo", "details": "preemergence, flooded paddy, rated three to four weeks after treatment"}, "Sagittaria pygmaea, L. [7]": {"test_system": "Sagittaria pygmaea, L.", "assay": "Preemergence weed control under flooded paddy conditions, SAGPY (Arrowhead (Pygmaea)); further: meaning of each grade not given here", "type": "in vivo", "details": "preemergence, flooded paddy, rated three to four weeks after treatment"}, "Cyperus iria [8]": {"test_system": "Cyperus iria", "assay": "Preemergence weed control under flooded paddy conditions, CYPIR (Rice Flatsedge); further: meaning of each grade not given here", "type": "in vivo", "details": "preemergence, flooded paddy, rated three to four weeks after treatment"}, "Sagittaria pygmaea, L. [9]": {"test_system": "Sagittaria pygmaea, L.", "assay": "Postemergence weed control under flooded paddy conditions, SAGPY (Arrowhead (Pygmaea))", "type": "in vivo", "details": "rated three to four weeks after treatment"}, "[10]": {"test_system": "Cyperus serotinus, Rottb.", "assay": "Preemergence weed control under flooded paddy conditions, CYPSE (Flatsedge); further: meaning of each grade not given here", "type": "in vivo", "details": "preemergence, rated three to four weeks after treatment"}, "[11]": {"test_system": "Monochoria vaginalis, Presl.", "assay": "Postemergence weed control under flooded paddy conditions, MOOVA (Monochoria)", "type": "in vivo", "details": "rated three to four weeks after treatment"}, "[12]": {"test_system": "Cyperus serotinus, Rottb.", "assay": "Postemergence weed control under flooded paddy conditions, CYPSE (Flatsedge)", "type": "in vivo", "details": "rated three to four weeks after treatment"}},
  "data": [
    {"compound": "Cc1cc(O)c(-c2nsc3ccc(-n4c(=O)cc(C(F)(F)F)n(C)c4=O)cc23)cc1C", "note": "[Example 11, 3-[3-(6-Hydroxy-3,4-xylyl)-1,2-benzisothiazol-5-yl]-1-methyl-6-(trifluoromethyl)-2,4(1H,3H)-pyrimidinedione]", "values": [
      {"measurement": "herbicidal effect rating, ORYSAT (rice tolerance)", "setting": "[1]; 0.0625 kg/ha", "result": 2.0},
      {"measurement": "herbicidal effect rating, ORYSAT (rice tolerance)", "setting": "[1]; 0.1250 kg/ha", "result": 2.0},
      {"measurement": "herbicidal effect rating, ORYSAT (rice tolerance)", "setting": "[1]; 0.2500 kg/ha", "result": 3.0},
      {"measurement": "herbicidal effect rating, ORYSAT (rice tolerance)", "setting": "[1]; 0.5000 kg/ha", "result": 3.0},
      {"measurement": "herbicidal effect rating, ECHORC", "setting": "[2]; 0.0625 kg/ha", "result": 7.0},
      {"measurement": "herbicidal effect rating, ECHORC", "setting": "[2]; 0.1250 kg/ha", "result": 8.0},
      {"measurement": "herbicidal effect rating, ECHORC", "setting": "[2]; 0.2500 kg/ha", "result": 8.0},
      {"measurement": "herbicidal effect rating, ECHORC", "setting": "[2]; 0.5000 kg/ha", "result": 9.0},
      {"measurement": "herbicidal effect rating, ORYSAT (rice tolerance)", "setting": "[3]; Rate 0.0313 kg/ha", "result": 0.0},
      {"measurement": "herbicidal effect rating, ORYSAT (rice tolerance)", "setting": "[3]; Rate 0.0625 kg/ha", "result": 0.0},
      {"measurement": "herbicidal effect rating, ORYSAT (rice tolerance)", "setting": "[3]; Rate 0.1250 kg/ha", "result": 0.0},
      {"measurement": "herbicidal effect rating, ORYSAT (rice tolerance)", "setting": "[3]; Rate 0.2500 kg/ha", "result": 1.0},
      {"measurement": "herbicidal effect rating, ORYSAT (rice tolerance)", "setting": "[3]; Rate 0.5000 kg/ha", "result": 1.0},
      {"measurement": "herbicidal effect rating, ECHORC", "setting": "[4]; Rate 0.0313 kg/ha", "result": 0.0},
      {"measurement": "herbicidal effect rating, ECHORC", "setting": "[4]; Rate 0.0625 kg/ha", "result": 0.0},
      {"measurement": "herbicidal effect rating, ECHORC", "setting": "[4]; Rate 0.1250 kg/ha", "result": 2.0},
      {"measurement": "herbicidal effect rating, ECHORC", "setting": "[4]; Rate 0.2500 kg/ha", "result": 4.0},
      {"measurement": "herbicidal effect rating, ECHORC", "setting": "[4]; Rate 0.5000 kg/ha", "result": 7.0},
      {"measurement": "herbicidal effect rating, CYPIR", "setting": "Cyperus iria [5]; Rate 0.0313 kg/ha", "result": 8.0},
      {"measurement": "herbicidal effect rating, CYPIR", "setting": "Cyperus iria [5]; Rate 0.0625 kg/ha", "result": 9.0},
      {"measurement": "herbicidal effect rating, CYPIR", "setting": "Cyperus iria [5]; Rate 0.1250 kg/ha", "result": 9.0},
      {"measurement": "herbicidal effect rating, CYPIR", "setting": "Cyperus iria [5]; Rate 0.2500 kg/ha", "result": 9.0},
      {"measurement": "herbicidal effect rating, CYPIR", "setting": "Cyperus iria [5]; Rate 0.5000 kg/ha", "result": 9.0},
      {"measurement": "herbicidal effect rating, MOOVA", "setting": "[6]; 0.0625 kg/ha", "result": 9.0},
      {"measurement": "herbicidal effect rating, MOOVA", "setting": "[6]; 0.1250 kg/ha", "result": 9.0},
      {"measurement": "herbicidal effect rating, MOOVA", "setting": "[6]; 0.2500 kg/ha", "result": 9.0},
      {"measurement": "herbicidal effect rating, MOOVA", "setting": "[6]; 0.5000 kg/ha", "result": 9.0},
      {"measurement": "herbicidal effect rating, SAGPY", "setting": "Sagittaria pygmaea, L. [7]; 0.0625 kg/ha", "result": 0.0},
      {"measurement": "herbicidal effect rating, SAGPY", "setting": "Sagittaria pygmaea, L. [7]; 0.1250 kg/ha", "result": 0.0},
      {"measurement": "herbicidal effect rating, SAGPY", "setting": "Sagittaria pygmaea, L. [7]; 0.2500 kg/ha", "result": 2.0},
      {"measurement": "herbicidal effect rating, SAGPY", "setting": "Sagittaria pygmaea, L. [7]; 0.5000 kg/ha", "result": 9.0},
      {"measurement": "herbicidal effect rating, CYPIR", "setting": "Cyperus iria [8]; 0.0625 kg/ha", "result": 9.0},
      {"measurement": "herbicidal effect rating, CYPIR", "setting": "Cyperus iria [8]; 0.1250 kg/ha", "result": 9.0},
      {"measurement": "herbicidal effect rating, CYPIR", "setting": "Cyperus iria [8]; 0.2500 kg/ha", "result": 9.0},
      {"measurement": "herbicidal effect rating, CYPIR", "setting": "Cyperus iria [8]; 0.5000 kg/ha", "result": 9.0},
      {"measurement": "herbicidal effect rating, SAGPY", "setting": "Sagittaria pygmaea, L. [9]; Rate 0.0313 kg/ha", "result": 0.0},
      {"measurement": "herbicidal effect rating, SAGPY", "setting": "Sagittaria pygmaea, L. [9]; Rate 0.0625 kg/ha", "result": 0.0},
      {"measurement": "herbicidal effect rating, SAGPY", "setting": "Sagittaria pygmaea, L. [9]; Rate 0.1250 kg/ha", "result": 0.0},
      {"measurement": "herbicidal effect rating, SAGPY", "setting": "Sagittaria pygmaea, L. [9]; Rate 0.2500 kg/ha", "result": 4.0},
      {"measurement": "herbicidal effect rating, SAGPY", "setting": "Sagittaria pygmaea, L. [9]; Rate 0.5000 kg/ha", "result": 7.0},
      {"measurement": "herbicidal effect rating, CYPSE", "setting": "[10]; 0.0625 kg/ha", "result": 2.0},
      {"measurement": "herbicidal effect rating, CYPSE", "setting": "[10]; 0.1250 kg/ha", "result": 2.0},
      {"measurement": "herbicidal effect rating, CYPSE", "setting": "[10]; 0.2500 kg/ha", "result": 2.0},
      {"measurement": "herbicidal effect rating, CYPSE", "setting": "[10]; 0.5000 kg/ha", "result": 7.0},
      {"measurement": "herbicidal effect rating, MOOVA", "setting": "[11]; Rate 0.0313 kg/ha", "result": 9.0},
      {"measurement": "herbicidal effect rating, MOOVA", "setting": "[11]; Rate 0.0625 kg/ha", "result": 9.0},
      {"measurement": "herbicidal effect rating, MOOVA", "setting": "[11]; Rate 0.1250 kg/ha", "result": 9.0},
      {"measurement": "herbicidal effect rating, MOOVA", "setting": "[11]; Rate 0.2500 kg/ha", "result": 9.0},
      {"measurement": "herbicidal effect rating, MOOVA", "setting": "[11]; Rate 0.5000 kg/ha", "result": 9.0},
      {"measurement": "herbicidal effect rating, CYPSE", "setting": "[12]; Rate 0.0313 kg/ha", "result": 0.0},
      {"measurement": "herbicidal effect rating, CYPSE", "setting": "[12]; Rate 0.0625 kg/ha", "result": 0.0},
      {"measurement": "herbicidal effect rating, CYPSE", "setting": "[12]; Rate 0.1250 kg/ha", "result": 0.0},
      {"measurement": "herbicidal effect rating, CYPSE", "setting": "[12]; Rate 0.2500 kg/ha", "result": 0.0},
      {"measurement": "herbicidal effect rating, CYPSE", "setting": "[12]; Rate 0.5000 kg/ha", "result": 0.0}
    ]}
  ]
}
